Experimental data: patent publication US9439961B2, “Pharmaceutical composition for treating ischemic events” (Niigata University, priority 2009, dated 2016)

What was measured:
[1] = test system: cerebral infarction rat model; assay: Cerebral infarction rat model (thrombus injection): infarct and edema volume of TTC-stained cerebral coronal section; assay type: in vivo, Sprague-Dawley rats
Excerpt: Sprague-Dawley rats (male, 8 weeks old, obtained from Charles River Laboratories Japan, Inc.) were used to produce cerebral infarction rat models.
(§1) In the present examples, a cerebral infarction rat model shown in FIG. 1B was produced in order to realize a state where cerebral hemorrhage concomitantly occurs as a result of administration of a thrombolytic agent after the therapeutic time window of the thrombolytic therapy. A thrombus was formed by coagulating rat's autologous blood and thrombin as a gel in a polyethylene tube catheter having a diameter of 0.35 mm (PE-50, product of Becton, Dickinson and Company). The formed thrombus was left to stand overnight and then cut to have a length of 1 mm Using the catheter, the thrombus was injected from the external carotid artery (ECA) 1 to the middle cerebral artery (MCA) 2 of the rat under anesthesia with halothane at 1% by mass to 1.5% by mass. Thereafter, the thus-treated rat was measured for cerebral blood flow (CBF) using a laser Doppler flowmetry (AFL21, product of ADVANCE Co., Ltd., Tokyo) before and 30 min or 24 hours after injection of the thrombus.
In the thrombolytic therapy for the cerebral infarction rat models, t-PA serving as a thrombolytic agent (alteplase, product of Mitsubishi Tanabe Pharma Corporation) was injected for 30 min to the femoral vein of each cerebral infarction rat model 1 hour or 4 hours after the injection of the thrombus (10 mg/kg, 10% bolus administration and 90% drip infusion).
Twenty-four hours after the injection of the thrombus, halothane was excessively administered to the rats for euthanasia which were then perfused with PBS, to thereby prepare an unfixed cerebral coronal section.
The cerebral coronal section was stained with TTC at 37° C. for 15 min in PBS (pH 7.4) containing a triphenyltetrazolium salt (TTC) at 2% by mass, and then scanned with a scanner (CanoScan™, product of Canon Co.).
The cerebral infarction and the volume of edema were calculated according to Swanson, R. A., et al. (J. Cereb. Blood Flow Metab. (1990) 10:290-293).
(§2) The combined administration of the t-PA and the anti-VEGF antibody was performed as described in Example 2. The effects of the combined administration of the t-PA and the anti-VEGF antibody four hours after the onset of cerebral infarction induced by injection of the thrombus were evaluated by measuring the cerebral infarct volume, edema volume, cerebral hemorrhage volume, and motor function scale of the TTC-stained cerebral coronal section prepared 24 hours after the onset of cerebral infarction induced by injection of the thrombus.
The cerebral infarct volume and the edema volume of the TTC-stained cerebral coronal section were calculated according to Swanson, R. A., et al. (J. Cereb. Blood Flow Metab. (1990) 10:290-293). The statistical significance was validated by ANOVA (analysis of variance), and post hoc comparisons were performed by the Tukey method.

[2] = test system: cerebral infarction rat model; assay: Cerebral hemorrhage volume (hemoglobin concentration, spectrophotometer) in cerebral infarction rat model; assay type: in vivo, Sprague-Dawley rats; details: SU1498 20 mg/kg in DMSO single bolus with t-PA four hours after onset; 24 h after onset; vs t-PA and DMSO; P=0.005 (FIG. 5C)
Excerpt: as §1, with “The formed thrombus was left to stand overnight and then cut to have a length of 1 mm Using the catheter, the thrombus was injected from the external carotid artery (ECA) 1 to the middle cerebral artery (MCA) 2 of the rat under anesthesia with halothane at 1% by mass to 1.5% by mass.” left out, “thrombus. […]” for “thrombus.”
as §2, with “thrombus. […]” for “thrombus.”

[3] = test system: cerebral infarction rat model; assay: Motor function scale (5 grades) in cerebral infarction rat model; assay type: in vivo, Sprague-Dawley rats; details: 24 h after onset
VEGF = assay: Western blotting of VEGF expression in cerebral infarction rat model; assay type: in vivo; details: t-PA (with control antibody) four hours after onset of cerebral infarction (FIG. 3)
Procedure: In order to suppress or reduce concomitantly occurring cerebral hemorrhage and cerebral infarction exacerbation accompanied with the administration of the t-PA after an acute stage of cerebral infarction in human, 100 μg of rabbit anti-rat VEGF antibody IgG (RB-222, product of Lab Vision-NeoMarkers, hereinafter “anti-VEGF antibody”) was bolus administered together with the t-PA. In the control experiment, 100 μg of rabbit anti-human IgG (R5G10-048, product of OEM Concepts, hereinafter “control antibody”) was bolus administered together with the t-PA.
Using the total cell extract as a sample, western blotting was performed according to the method described in Shimohata, T., et al. (J. Cereb. Blood Flow Metab. (2007) 27:1463-1475).
The VEGF was detected using anti-VEGF antibody (SC-152, product of Santa Cruz Biotechnologies, dilution ratio: 1:200) as a primary antibody, and peroxidase-conjugated anti-rabbit IgG antibody (dilution ratio: 1:10,000) as a secondary antibody.
Also, in order to confirm that the amounts of the protein applied were uniform in all the samples, β-actin was detected by allowing anti-β-actin (SC-1616, product of Santa Cruz Biotechnologies, dilution ratio: 1:2,000) and the above secondary antibody to react on the blotting membrane from which the primary and secondary antibodies had been removed. […]

[4] = t-PA 10 mg/kg i.v. four hours after injection of thrombus, vs t-PA one hour after (FIG. 2C)

| Compound | cerebral infarct volume ([1]; SU1498 20 mg/kg in DMSO single bolus with t-PA four hours after onset, 24 h after onset, vs t-PA and DMSO, n=6 (FIG. 5A)) | edema volume ([1]; SU1498 20 mg/kg in DMSO single bolus with t-PA four hours after onset, 24 h after onset, vs t-PA and DMSO, n=6 (FIG. 5B)) | cerebral hemorrhage volume (hemoglobin concentration) [2] | motor function scale (prognosis) ([3]; SU1498 20 mg/kg with t-PA four hours after onset, vs t-PA and DMSO, n=10 (FIG. 5D)) | area where cerebral infarction occurred [1, 4] | hemorrhage in the area where cerebral infarction occurred [1, 4] | area where cerebral infarction occurred ([1]; t-PA 10 mg/kg i.v. one hour after injection of thrombus, section 24 h after, vs animal receiving no t-PA (FIG. 2B)) | expression level of the VEGF (western blot) (VEGF) | motor function scale (prognosis) ([3]; t-PA and control antibody four hours after onset, vs control antibody only (FIG. 4D)) |
| --- | --- | --- | --- | --- | --- | --- | --- | --- | --- |
| CC(C)c1cc(/C=C(\C#N)C(=O)NCCCc2ccccc2)cc(C(C)C)c1O [SU1498, (E)-3-(3,5-diisopropyl-4-hydroxyphenyl)-2-((3-phenyl-n-propyl)amino-carbonyl)acrylonitrile] | could not reduce | could not reduce | could reduce | better in prognosis |  |  |  |  |  |
| t-PA: t-PA serving as a thrombolytic agent (alteplase, product of Mitsubishi Tanabe Pharma Corporation) |  |  |  |  | enlargement | considerably observed | smaller | considerably increase | worse in prognosis |
